From patent US20230136569A1, “USE OF NMN TO REDUCE IMMUNODEPRESSION AND IMMUNOSENESCENCE” (NUVAMID SA, priority 2020, published 2023)

Columns and labels:
Assay type in all cases: in vivo
[1] = test system: CD4+ T cells producing IFNγ or IL10; test: Cytokine production by splenocytes stimulated with anti-CD3/CD28 beads for 18 h; details: splenocytes of treated old mice, anti-CD3/CD28 beads 18 h (FIG. 10A)
Protocol: The total splenocytes were stimulated with beads coated with anti-CD3/CD28 for 18 h. As shown in FIGS. 10A and 10B, ageing reduced the proportion of cells producing IFNγ and IL10 when simulated with beads coated with anti-CD3/CD28.

[2] = test system: B cells in the bone marrow; test: Flow cytometry of B cells in bone marrow of old mice; details: 500 mg/kg p.o., α-NMN 4 weeks; for number of CD38+ B cells in bone marrow: β-NMN 6 weeks (FIG. 4B); for number of CD45+ B cells in bone marrow: β-NMN 6 weeks (FIG. 5A); for number of pre-pro-B cells in bone marrow: β-NMN 6 weeks (FIG. 5B); for number of pro-B cells in bone marrow: β-NMN 6 weeks (FIG. 5C); for number of pre-B cells in bone marrow: β-NMN 6 weeks (FIG. 5D); for number of immature B cells in bone marrow: β-NMN 6 weeks (FIG. 5E); for number of B cells in bone marrow: β-NMN 6 weeks, vs non-treated old mice (FIG. 4A)
Protocol: The administering of β-NMN at 500 mg/kg, of α-NMN at 500 mg/kg and of the vehicle (water) was obtained via oral route (p.o) in the drinking water to young and old mice. The solutions were prepared by dissolving the powder of β-NMN or α-NMN in the vehicle (water). The study comprised 4 groups each having 6 mice: • Group 1: young mice (aged 10 weeks)+drinking water (vehicle) • Groupe 2: old mice (aged 15 months)+drinking water (vehicle) • Group 3: old mice (aged 15 months)+compound I-B (alpha-NMN) in the drinking water • Group 4: old mice (aged 15 months)+compound I-A (beta-NMN) in the drinking water The water consumption of the mice was assessed per cage every other day. The mice were weighed every week. The mice in Group 3 were sacrificed after 4 weeks for organ collection and characterisation of T cell function. The mice in Group 4 were sacrificed after 6 weeks for organ collection and characterisation of T cell function. On the day of sacrifice, the mice were anaesthetised with Vetoflurane (isoflurane) and blood samples were taken from the retroorbital sinus. The blood was incubated for 30 minutes at ambient temperature and then centrifuged at 1300 g for 10 minutes. After sacrificing of the mice, the spleen, thymus, and bone marrow of each animal were removed. The thymus was weighed and measured to evaluate involution thereof. For illustration purposes, photos of the thymus were taken on 5 animals per group. The thymus was divided into two parts: one part was treated with formol for histological examination. The second part was treated for characterisation of the immune cells. For characterisation of the cells, the thymus and spleen were crushed through a sieve of […] over a 50 mL tube with a syringe plunger. The bone marrow was rinsed with RPMI culture medium using a needle and syringe. The cell suspension was then centrifuged at 400 g for 5 minutes at 4° C. Lysis of the red blood cells was also performed before the cell count and use thereof for cytometry. The isolated cells of the spleen, thymus and bone marrow were marked with antibodies in accordance with the following tables to identify the proportion of effector and memory naive T and B cells. The following bone marrow cells were also examined for characterisation as a function of the combination of proteins on the surface thereof: [table] Measured parameters: The results of flow cytometry are expressed in number or as a proportion of cells per organ. The weight of the thymus is expressed in grams.

[3] = Weight gain and water consumption of mice given the compounds in drinking water; details: old mice (15 months), 500 mg/kg p.o. in drinking water; compared with non-treated mice of 15 months (FIG. 1A)
Protocol: The administering of β-NMN at 500 mg/kg, of α-NMN at 500 mg/kg and of the vehicle (water) was obtained via oral route (p.o) in the drinking water to young and old mice. The solutions were prepared by dissolving the powder of β-NMN or α-NMN in the vehicle (water). The solution was used at ambient temperature for no more than 2 days and was freshly prepared for each new administration. The mice were weighed each week to adapt the dose of the compound to be administered. Throughout the entire phase, a standard food diet and tap water were provided ad libitum. The study comprised 4 groups each having 6 mice: • Group 1: young mice (aged 10 weeks)+drinking water (vehicle) • Groupe 2: old mice (aged 15 months)+drinking water (vehicle) • Group 3: old mice (aged 15 months)+compound I-B (alpha-NMN) in the drinking water • Group 4: old mice (aged 15 months)+compound I-A (beta-NMN) in the drinking water The water consumption of the mice was assessed per cage every other day. The mice were weighed every week. The mice in Group 3 were sacrificed after 4 weeks for organ collection and characterisation of T cell function. The mice in Group 4 were sacrificed after 6 weeks for organ collection and characterisation of T cell function. On the day of sacrifice, the mice were anaesthetised with Vetoflurane (isoflurane) and blood samples were taken from the retroorbital sinus. […]

thymus = test: Weight and size of the thymus (thymic involution) in old mice; details: old mice (15 months), 500 mg/kg p.o. in drinking water; α-NMN 4 weeks, β-NMN 6 weeks; vs non-treated old mice (FIG. 2)
Protocol: The administering of β-NMN at 500 mg/kg, of α-NMN at 500 mg/kg and of the vehicle (water) was obtained via oral route (p.o) in the drinking water to young and old mice. The solutions were prepared by dissolving the powder of β-NMN or α-NMN in the vehicle (water). The study comprised 4 groups each having 6 mice: • Group 1: young mice (aged 10 weeks)+drinking water (vehicle) • Groupe 2: old mice (aged 15 months)+drinking water (vehicle) • Group 3: old mice (aged 15 months)+compound I-B (alpha-NMN) in the drinking water • Group 4: old mice (aged 15 months)+compound I-A (beta-NMN) in the drinking water The water consumption of the mice was assessed per cage every other day. The mice were weighed every week. The mice in Group 3 were sacrificed after 4 weeks for organ collection and characterisation of T cell function. The mice in Group 4 were sacrificed after 6 weeks for organ collection and characterisation of T cell function. On the day of sacrifice, the mice were anaesthetised with Vetoflurane (isoflurane) and blood samples were taken from the retroorbital sinus. The blood was incubated for 30 minutes at ambient temperature and then centrifuged at 1300 g for 10 minutes. […] The thymus was weighed and measured to evaluate involution thereof. […] Measured parameters: The results of flow cytometry are expressed in number or as a proportion of cells per organ. […]

SMILES | response to stimulation: proportion of cells producing IFNγ [1] | number of CD38+ B cells in bone marrow [2] | number of CD45+ B cells in bone marrow [2] | number of pre-pro-B cells in bone marrow [2] | number of pro-B cells in bone marrow [2] | number of pre-B cells in bone marrow [2] | number of immature B cells in bone marrow [2] | number of B cells in bone marrow [2] | weight gain of the treated mice [3] | weight and size of the thymus (thymus)
NC(=O)c1ccc[n+]([C@@H]2O[C@H](COP(=O)([O-])O)[C@@H](O)[C@H]2O)c1 (stereo in doubt) [I-A, nicotinamide mononucleotide] | lack of response | restoring of the number of CD38+ B cells to the level expressed by the young mice | significant increase in the number of CD45+ B cells | increase in the number of pre-pro B cells | does not show any impact on the number of pro-B cells | increase in the number of pre-B cells | increase | significant increase in the number of B cells | did not significantly increase the weight | significant increase in the size of the thymus
NC(=O)c1ccc[n+]([C@H]2O[C@H](COP(=O)([O-])O)[C@@H](O)[C@H]2O)c1 (stereo in doubt) [I-B, alpha nicotinamide mononucleotide] | the response to stimulation was lower | restoring of the number of CD38+ B cells to the level expressed by the young mice | significant increase in the number of CD45+ B cells | increase in the number of pre-pro B cells | does not show any impact on the number of pro-B cells | increase in the number of pre-B cells | increase | significant increase in the number of B cells | did not significantly increase the weight | did not allow an increase in the volume or size of the thymus
